# Measured values from patent US20220218738A1, “POTASSIUM-BINDING AGENTS FOR USE IN HEMODIALYSIS PATIENTS” (AstraZeneca AB, priority 2019, published 2022).
# Tested on: hyperkalemia in patients on hemodialysis
# Assay: Phase 3b randomized, double-blind, placebo-controlled study to reduce incidence of pre-dialysis hyperkalemia with SZC
# Set-up: species or system human
# Conditions: in vivo
# Experimental: A Phase 3b, Multicenter, Prospective, Randomized, Double Blind, Placebocontrolled Study to Reduce Incidence of Pre-Dialysis Hyperkalemia with Sodium Zirconium Cyclosilicate (SZC) The study was carried out to evaluate the efficacy of Sodium Zirconium Cyclosilicate in the treatment of hyperkalemia in patients on hemodialysis. The study was designed to include approximately 180 patients with ESRD receiving maintenance hemodialysis treatments three times per week with an indication for treatment of hyperkalemia (FIG. 1). The study is a randomized, double-blind study with two treatment groups, SZC or placebo, and includes hemodialysis patients that have been on dialysis for a minimum of three months and receive treatment three times a week. Patients must have hemodialysis access consisting of an arteriovenous fistula, AV graft, or tunneled (permanent) catheter which is expected to remain in place for the entire duration of the study (FIG. 2).
# The starting dose of SZC will be 5 g once daily on non-dialysis day and may be adjusted to a maximum of 15 g per non-dialysis day to maintain a pre-dialysis S-K between 4-5 mmol/L. SZC or placebo will be administered orally on non-dialysis days for a treatment period of eight weeks. Patients will be randomized (1:1) to double-blind treatment with either SZC or placebo, started at 5 g once daily on non-dialysis days, and titrated during a period of four weeks to achieve and maintain a pre-dialysis serum potassium between 4 and 5 mmol/L after the Long Inter-Dialytic Interval (LIDI). Maximum SZC dose is 15 g once daily on non-dialysis days. Treatment will be continued unchanged for an additional four week evaluation period to complete a total of 8 weeks. The primary benefit for patients randomized to SZC is expected to be the maintenance of normokalemia during the long interdialytic interval, potentially including the relief of associated signs and symptoms and an improved quality of life.
# For inclusion in the study patients should fulfil the following criteria: 1. Provision of informed consent prior to any study specific procedures. 2. Female or male aged >18 years at screening Visit 1. For patients aged <20 years and enrolled in Japan, a written informed consent should be obtained from the patient and his or her legally acceptable representative. 3. Receiving hemodialysis (or hemodiafiltration) three times a week for treatment of endstage renal disease (ESRD) for at least three months before randomization. 4. […]
# Patients should not enter the study if any of the following exclusion criteria are fulfilled: 1. […] Hemoglobin <9 g/dL on screening (as assessed on Visit 1). […]
substance,measurement,value
Sodium Zirconium Cyclosilicate [SZC],number of patients with adverse events,40
same,number of patients with serious adverse event,7
same,overall safety,no safety concerns
same,patients with pre-dialysis hypokalemia (serum K<3.5 mmol/L),five
